The source of these data is patent US20100323990A1, “SHIP 1 MODULATOR PRODRUGS” (THE UNIVERSITY OF BRITISH COLUMBIA, priority 2006, published 2010).

One assay deals with T1, ΔC2 SHIP (Homo sapiens, UniProt Q92835, DEL725-863).
T1 construct: His6; made in house; host or cells: mammalian expression vector pME18S
T1 sequence (Q92835 with tags, fused parts or gaps DEL725-863): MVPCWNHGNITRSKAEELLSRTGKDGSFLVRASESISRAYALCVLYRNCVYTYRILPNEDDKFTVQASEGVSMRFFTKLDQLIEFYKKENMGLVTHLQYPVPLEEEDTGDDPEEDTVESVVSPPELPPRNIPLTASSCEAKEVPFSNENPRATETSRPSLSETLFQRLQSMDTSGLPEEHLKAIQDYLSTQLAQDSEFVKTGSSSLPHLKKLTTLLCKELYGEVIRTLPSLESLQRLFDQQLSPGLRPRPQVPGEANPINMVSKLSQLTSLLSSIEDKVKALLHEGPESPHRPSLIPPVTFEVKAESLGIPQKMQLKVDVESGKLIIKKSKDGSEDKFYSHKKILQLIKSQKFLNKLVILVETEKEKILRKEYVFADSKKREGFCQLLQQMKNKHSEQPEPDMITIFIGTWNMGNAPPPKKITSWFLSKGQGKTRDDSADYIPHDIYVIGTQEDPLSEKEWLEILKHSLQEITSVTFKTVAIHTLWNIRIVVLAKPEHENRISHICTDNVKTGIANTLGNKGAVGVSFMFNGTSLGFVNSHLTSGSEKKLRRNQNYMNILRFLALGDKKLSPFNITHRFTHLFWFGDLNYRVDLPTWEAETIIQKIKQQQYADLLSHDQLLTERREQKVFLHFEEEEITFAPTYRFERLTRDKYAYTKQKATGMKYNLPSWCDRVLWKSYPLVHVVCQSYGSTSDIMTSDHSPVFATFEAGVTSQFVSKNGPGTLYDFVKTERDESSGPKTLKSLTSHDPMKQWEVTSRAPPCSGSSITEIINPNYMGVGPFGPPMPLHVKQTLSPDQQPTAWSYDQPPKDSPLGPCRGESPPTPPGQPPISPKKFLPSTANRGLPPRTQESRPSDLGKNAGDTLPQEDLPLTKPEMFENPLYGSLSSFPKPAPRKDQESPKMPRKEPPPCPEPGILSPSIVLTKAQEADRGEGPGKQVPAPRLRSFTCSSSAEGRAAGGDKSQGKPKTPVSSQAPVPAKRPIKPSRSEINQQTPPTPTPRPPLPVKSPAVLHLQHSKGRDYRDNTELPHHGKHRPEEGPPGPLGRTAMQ
Briefly: Scintillation proximity assay, SHIP lacking its C2 domain. In kind it is binding. The settings on record: SPA beads. As to the method:
Compound 100 was radiolabelled with tritium by GE Healthcare (Piscataway, N.J.) to a specific activity of 42 Ci/mmole. Copper chelate (His-Tag) YSi SPA Scintillation Beads (GE ealthcare, Piscataway, N.J.) were diluted in 0.25% BSA/TBS to 1.5 mg/mL and recombinant, His6-tagged protein added at the indicated concentrations: wild-type (1 pM), ΔC2 SHIP enzyme (1 pM) or C2 domain (10 nM). Protein was allowed to bind 1 h at 23° C., and 250 μg of beads were aliquoted per well of a 96-well plate. 5 μCi of [^3H]-Compound 100 was added per well, the plate gently agitated for 30 min and the amount of bead associated radioactivity quantified by counting in a Wallac BetaPlate plate scintillation counter.
Isolated recombinant, His6-tagged C2 domain was expressed and its PI-3,4-P2 binding ability was determined using protein lipid overlay assays. Purified C2 domain was incubated with membrane strips spotted with PI-3,4-P2 and bound protein detected using an anti-His6 antibody. As shown in FIG. 11C the C2 domain bound PI-3,4-P2 and this binding was inhibited by Compound 100, consistent with both Compound 100 and PI-3,4-P2 interacting with the C2 domain at a common binding site.

The next assay has as its system SHIP C2 domain. Briefly: Protein lipid overlay assay, C2 domain binding to PI-3,4-P2. To be noted: 4 μM Compound 100, 30 min at 23° C. As to the method: Protein lipid overlay (PLO) assays were performed essentially as described with minor modifications. Lyophilized phosphatidylinositol-3,4-bisphosphate diC16 (PIP2, Echelon Biosciences, Salt Lake City, Utah) was reconstituted in a 2:1.8 solution of methanol and water. PVDF membranes (Millipore, Missisauga, Ont) were initially wetted in methanol for 1 minute, and washed 3×5 min with water, and gently agitated in TBST buffer (20 mM Tris pH 7.5, 0.15 M NaCl (TBS) with 0.05% Tween 20) at 23° C. overnight. Treated membranes were air-dried and dilutions of reconstituted lipids were spotted in 1 μl aliquots to give the indicated amount of PIP2 per membrane spot. Membranes were dried completely and blocked with blocking buffer (3% BSA in TBS with 0.05% NaN3) for 1 h at 23° C. Purified, recombinant C2 domain was diluted into blocking buffer (5 μM final) and treated with 4 μM Compound 100 or EtOH control for 30 min at 23° C. prior to overnight incubation with the PIP2 spotted membranes. […] After washing, bound proteins were detected and quantified on a Li-Cor Odyssey scanner (Lincoln, Nebr.).
Isolated recombinant, His6-tagged C2 domain was expressed and its PI-3,4-P2 binding ability was determined using protein lipid overlay assays. Purified C2 domain was incubated with membrane strips spotted with PI-3,4-P2 and bound protein detected using an anti-His6 antibody. […]

For the compound `Cc1cc(O)cc2c1[C@]1(C)CCC3C(C)(C)CCC[C@]3(C)[C@H]1C2` (some centres unmarked) [Compound 100], the “binding of [3H]-Compound 100 to SHIP lacking its C2 domain” value at ΔC2 SHIP is “not to SHIP lacking its C2 domain”. Further, the “binding of C2 domain to PI-3,4-P2” value in the assay on SHIP C2 domain is “inhibited”.
